Data reported in ChEMBL document CHEMBL3045527, “Herbicides for control of isoproturon-resistant Littleseed Canarygrass (Phalaris minor) in wheat” (2008).

How the values were obtained:
Type in all cases: functional
Phalaris minor [1] = experiment: Herbicidal activity against isoproturon-resistant Phalaris minor infested wheat field assessed as wheat yield at 1000 g/ha applied at 35 days after sowing through sprayer measured 95 days after sowing (reference value: 3.05 t/ha)
Phalaris minor [2] = experiment: Post-emergence herbicidal activity against isoproturon-resistant Phalaris minor infested wheat field assessed as reduction in weed dry weight at 1000 g/ha applied on 1 after sowing through sprayer measured 120 days after sowing relative to control; design: scale not given: the % may be the effect or the level left
Phalaris minor [3] = experiment: Herbicidal activity against isoproturon-resistant Phalaris minor infested wheat field assessed as weed dry weight at 1000 g/ha applied at 35 days after sowing through sprayer measured 95 days after sowing (reference value: 213.0 g/m2)
Phalaris minor [4] = experiment: Herbicidal activity against isoproturon-resistant Phalaris minor infested wheat field assessed as weed dry weight at 1000 g/ha applied at 32 to 35 days after sowing through sprayer measured 100 days after sowing (reference value: 313.7 g/m2)
Melilotus albus [5] = experiment: Herbicidal activity against Melilotus albus infested wheat field assessed as weed dry weight at 1000 g/ha applied at 32 to 35 days after sowing through sprayer measured 100 days after sowing (reference value: 313.7 g/m2)
Lepidium didymum [6] = experiment: Herbicidal activity against Lepidium didymum infested wheat field assessed as weed dry weight at 1000 g/ha applied at 32 to 35 days after sowing through sprayer measured 100 days after sowing (reference value: 313.7 g/m2)
Phalaris minor [7] = experiment: Herbicidal activity against isoproturon-resistant Phalaris minor infested wheat field assessed as wheat yield at 1000 g/ha applied at 32 to 35 days after sowing through sprayer (reference value: 3.41 t/ha)
Medicago polymorpha [8] = experiment: Herbicidal activity against Medicago polymorpha infested wheat field assessed as weed dry weight at 1000 g/ha applied at 32 to 35 days after sowing through sprayer measured 100 days after sowing (reference value: 313.7 g/m2)
Medicago polymorpha [9] = experiment: Herbicidal activity against Medicago polymorpha infested wheat field assessed as weed dry weight at 120 g/ha applied at 32 to 35 days after sowing through sprayer measured 100 days after sowing (reference value: 313.7 g/m2)
Lepidium didymum [10] = experiment: Herbicidal activity against Lepidium didymum infested wheat field assessed as weed dry weight at 120 g/ha applied at 32 to 35 days after sowing through sprayer measured 100 days after sowing (reference value: 313.7 g/m2)
Phalaris minor [11] = experiment: Herbicidal activity against isoproturon-resistant Phalaris minor infested wheat field assessed as wheat yield at 120 g/ha applied at 32 to 35 days after sowing through sprayer (reference value: 3.41 t/ha)
Melilotus albus [12] = experiment: Herbicidal activity against Melilotus albus infested wheat field assessed as weed dry weight at 120 g/ha applied at 32 to 35 days after sowing through sprayer measured 100 days after sowing (reference value: 313.7 g/m2)
Phalaris minor [13] = experiment: Herbicidal activity against isoproturon-resistant Phalaris minor infested wheat field assessed as weed dry weight at 120 g/ha applied at 32 to 35 days after sowing through sprayer measured 100 days after sowing (reference value: 313.7 g/m2)
Phalaris minor [14] = experiment: Post-emergence herbicidal activity against isoproturon-resistant Phalaris minor infested wheat field assessed as reduction in weed dry weight at 25 g/ha applied on 1 after sowing through sprayer measured 120 days after sowing relative to control; design: scale not given: the % may be the effect or the level left
Phalaris minor [15] = experiment: Herbicidal activity against isoproturon-resistant Phalaris minor infested wheat field assessed as weed dry weight at 120 g/ha applied at 32 to 35 days after sowing through sprayer in presence of surfactant MON 0818 measured 100 days after sowing (reference value: 313.7 g/m2)
Phalaris minor [16] = experiment: Herbicidal activity against isoproturon-resistant Phalaris minor infested wheat field assessed as wheat yield at 120 g/ha applied at 32 to 35 days after sowing through sprayer in presence of surfactant MON 0818 (reference value: 3.41 t/ha)
Medicago polymorpha [17] = experiment: Herbicidal activity against Medicago polymorpha infested wheat field assessed as weed dry weight at 120 g/ha applied at 32 to 35 days after sowing through sprayer in presence of surfactant MON 0818 measured 100 days after sowing (reference value: 313.7 g/m2)
Melilotus albus [18] = experiment: Herbicidal activity against Melilotus albus infested wheat field assessed as weed dry weight at 120 g/ha applied at 32 to 35 days after sowing through sprayer in presence of surfactant MON 0818 measured 100 days after sowing (reference value: 313.7 g/m2)
Lepidium didymum [19] = experiment: Herbicidal activity against Lepidium didymum infested wheat field assessed as weed dry weight at 120 g/ha applied at 32 to 35 days after sowing through sprayer in presence of surfactant MON 0818 measured 100 days after sowing (reference value: 313.7 g/m2)
Phalaris minor [20] = experiment: Herbicidal activity against isoproturon-resistant Phalaris minor infested wheat field assessed as weed dry weight at 30 g/ha applied at 35 days after sowing through sprayer in presence of 0.5 % surfactant A 12127 measured 95 days after sowing (reference value: 213.0 g/m2)
Phalaris minor [21] = experiment: Herbicidal activity against isoproturon-resistant Phalaris minor infested wheat field assessed as wheat yield at 35 g/ha applied at 35 days after sowing through sprayer in presence of 0.5 % surfactant A 12127 measured 95 days after sowing (reference value: 3.05 t/ha)
Phalaris minor [22] = experiment: Herbicidal activity against isoproturon-resistant Phalaris minor infested wheat field assessed as weed dry weight at 35 g/ha applied at 35 days after sowing through sprayer in presence of 0.5 % surfactant A 12127 measured 95 days after sowing (reference value: 213.0 g/m2)
Phalaris minor [23] = experiment: Herbicidal activity against isoproturon-resistant Phalaris minor infested wheat field assessed as wheat yield at 30 g/ha applied at 35 days after sowing through sprayer in presence of 0.5 % surfactant A 12127 measured 95 days after sowing (reference value: 3.05 t/ha)
Phalaris minor [24] = experiment: Post-emergence herbicidal activity against isoproturon-resistant Phalaris minor infested wheat field assessed as reduction in weed dry weight at 280 g/ha applied on 1 after sowing through sprayer measured 120 days after sowing relative to control; design: scale not given: the % may be the effect or the level left
Phalaris minor [25] = experiment: Herbicidal activity against isoproturon-resistant Phalaris minor infested wheat field assessed as wheat yield at 60 g/ha applied at 35 days after sowing through sprayer measured 95 days after sowing (reference value: 3.05 t/ha)
Melilotus albus [26] = experiment: Herbicidal activity against Melilotus albus infested wheat field assessed as weed dry weight at 60 g/ha applied at 32 to 35 days after sowing through sprayer measured 100 days after sowing (reference value: 313.7 g/m2)
Phalaris minor [27] = experiment: Herbicidal activity against isoproturon-resistant Phalaris minor infested wheat field assessed as weed dry weight at 60 g/ha applied at 35 days after sowing through sprayer measured 95 days after sowing (reference value: 213.0 g/m2)
Medicago polymorpha [28] = experiment: Herbicidal activity against Medicago polymorpha infested wheat field assessed as weed dry weight at 60 g/ha applied at 32 to 35 days after sowing through sprayer measured 100 days after sowing (reference value: 313.7 g/m2)
Lepidium didymum [29] = experiment: Herbicidal activity against Lepidium didymum infested wheat field assessed as weed dry weight at 60 g/ha applied at 32 to 35 days after sowing through sprayer measured 100 days after sowing (reference value: 313.7 g/m2)
Phalaris minor [30] = experiment: Herbicidal activity against isoproturon-resistant Phalaris minor infested wheat field assessed as weed dry weight at 60 g/ha applied at 32 to 35 days after sowing through sprayer measured 100 days after sowing (reference value: 313.7 g/m2)
Phalaris minor [31] = experiment: Herbicidal activity against isoproturon-resistant Phalaris minor infested wheat field assessed as wheat yield at 60 g/ha applied at 32 to 35 days after sowing through sprayer (reference value: 3.41 t/ha)
Phalaris minor [32] = experiment: Pre-emergence herbicidal activity against isoproturon-resistant Phalaris minor infested wheat field assessed as reduction in weed dry weight at 1250 g/ha applied on 1 after sowing through sprayer measured 120 days after sowing relative to control; design: scale not given: the % may be the effect or the level left

Compound: CC(C)c1ccc(NC(=O)N(C)C)cc1 [ISOPROTURON]
- Crop_yield (Phalaris minor [1]): 3.61 tons/ha
- Activity (Phalaris minor [2]): 26.2%
- Activity (Phalaris minor [3]): 179.2 g/m2
- Activity (Phalaris minor [4]): 242 g/m2
- Activity (Melilotus albus [5]): 3 g/m2
- Activity (Lepidium didymum [6]): 3 g/m2
- Crop_yield (Phalaris minor [7]): 3.99 tons/ha
- Activity (Medicago polymorpha [8]): 3 g/m2

Compound: C[C@@H](Oc1ccc(Oc2nc3ccc(Cl)cc3o2)cc1)C(=O)O [FENOXAPROP-P]
- Activity (Medicago polymorpha [9]): 25.2 g/m2
- Activity (Lepidium didymum [10]): 25.2 g/m2
- Crop_yield (Phalaris minor [11]): 5.96 tons/ha
- Activity (Melilotus albus [12]): 25.2 g/m2
- Activity (Phalaris minor [13]): 5.9 g/m2

Compound: CCS(=O)(=O)c1nc2ccccn2c1S(=O)(=O)NC(=O)Nc1nc(OC)cc(OC)n1 [SULFOSULFURON]
- Activity (Phalaris minor [14]): 93.8%
- Activity (Phalaris minor [15]): 0.3 g/m2
- Crop_yield (Phalaris minor [16]): 6.2 tons/ha
- Activity (Medicago polymorpha [17]): 1.8 g/m2
- Activity (Melilotus albus [18]): 1.8 g/m2
- Activity (Lepidium didymum [19]): 1.8 g/m2

Compound: CCc1cc(C)cc(CC)c1-c1c(OC(=O)C(C)(C)C)n2n(c1=O)CCOCC2 [PINOXADEN]
- Activity (Phalaris minor [20]): 2.3 g/m2
- Crop_yield (Phalaris minor [21]): 5.38 tons/ha
- Activity (Phalaris minor [22]): 0.3 g/m2
- Crop_yield (Phalaris minor [23]): 5.44 tons/ha

Compound: CSc1nnc(C(C)(C)C)c(=O)n1N [METRIBUZIN]
- Activity (Phalaris minor [24]): 94.7%

Compound: C[C@@H](Oc1ccc(Oc2ncc(Cl)cc2F)cc1)C(=O)O [CLODINAFOP]
- Crop_yield (Phalaris minor [25]): 5.42 tons/ha
- Activity (Melilotus albus [26]): 38.3 g/m2
- Activity (Phalaris minor [27]): 0.6 g/m2
- Activity (Medicago polymorpha [28]): 38.3 g/m2
- Activity (Lepidium didymum [29]): 38.3 g/m2
- Activity (Phalaris minor [30]): 0.6 g/m2
- Crop_yield (Phalaris minor [31]): 6.01 tons/ha

Compound: CCC(CC)Nc1c([N+](=O)[O-])cc(C)c(C)c1[N+](=O)[O-] [PENDIMETHALIN]
- Activity (Phalaris minor [32]): 88.5%
